Reference: patent US20030148925A1, “Insulin formulation for inhalation” (priority 2000, published 2003)

Conditions: dog, in vivo

AUC Normalised (Relative %)	AUC Normalised (relative to the subcutaneous dose of 1.5 units)	AUC Per Dose	rank of AUC following normalisation to the doses administered	Substance
(17.0) %	495 uU.min/ml	2355 uU.min/ml	highest AUC	20% Zinc Insulin in Trehalose [Formulation D]
(6.4) %	188 uU.min/ml	625 uU.min/ml		95% Zinc Insulin in Trehalose [Formulation C]
(100) %	2916 uU.min/ml	2916 uU.min/ml		Humulin S [Formulation E]
(8.0) %	234 uU.min/ml	773 uU.min/ml		Insulin Without Zinc [Formulation B]
(4.2) %	123 uU.min/ml	657 uU.min/ml		Zinc Insulin [Formulation A]
